The source of these data is ChEMBL document CHEMBL3351888, “Synthesis and Pharmacological Evaluation of DHβE Analogues as Neuronal Nicotinic Acetylcholine Receptor Antagonists” (ACS Med Chem Lett, 2014).

SMILES strings stand for the structures.

Experiment [1] has as its target T1, Neuronal acetylcholine receptor; alpha3/beta4 (Rattus norvegicus, UniProt P04757+P12392). As to the kind of experiment: Displacement of [3H]epibatidine from rat alpha3beta4 nAChR transfected in HEK293 cells after 4 hrs by scintillation count analysis. The class given is cell-based.
Experiment [2] has as its target Nicotinic acetylcholine receptor alpha-4/beta-2 (Mus musculus, UniProt Q8R493+Q9ERK7). As to the kind of experiment: Antagonist activity at mouse alpha4beta2 nAChR transfected in HEK293 cells by FLIPR membrane potential blue (FMP) assay. The class given is cell-based.
The target in experiment [3] is T2, Neuronal acetylcholine receptor; alpha4/beta2 (Rattus norvegicus, UniProt P09483+P12390). As to the kind of experiment: Inhibition of rat membrane alpha4beta2 nAChR by [3H]cytisine binding assay.
Experiment [4] has as its target T2, Neuronal acetylcholine receptor; alpha4/beta2. As to the kind of experiment: Displacement of [3H]epibatidine from rat alpha4beta2 nAChR transfected in HEK293 cells after 4 hrs by scintillation count analysis. The class given is cell-based. For orientation: Displacement assays read how much labelled ligand stays bound in the presence of the test substance.
Experiment [5] addresses Neuronal acetylcholine receptor; alpha4/beta4 (Rattus norvegicus, UniProt P09483+P12392). As to the kind of experiment: Displacement of [3H]epibatidine from rat alpha4beta4 nAChR transfected in HEK293 cells after 4 hrs by scintillation count analysis. The class given is cell-based.
Experiment [6] addresses T1, Neuronal acetylcholine receptor; alpha3/beta4. As to the kind of experiment: Antagonist activity at rat alpha3beta4 nAChR transfected in HEK293 cells by FLIPR membrane potential blue (FMP) assay. The class given is cell-based.

Sequence of Neuronal acetylcholine receptor; alpha4/beta4 (P09483 whole entry): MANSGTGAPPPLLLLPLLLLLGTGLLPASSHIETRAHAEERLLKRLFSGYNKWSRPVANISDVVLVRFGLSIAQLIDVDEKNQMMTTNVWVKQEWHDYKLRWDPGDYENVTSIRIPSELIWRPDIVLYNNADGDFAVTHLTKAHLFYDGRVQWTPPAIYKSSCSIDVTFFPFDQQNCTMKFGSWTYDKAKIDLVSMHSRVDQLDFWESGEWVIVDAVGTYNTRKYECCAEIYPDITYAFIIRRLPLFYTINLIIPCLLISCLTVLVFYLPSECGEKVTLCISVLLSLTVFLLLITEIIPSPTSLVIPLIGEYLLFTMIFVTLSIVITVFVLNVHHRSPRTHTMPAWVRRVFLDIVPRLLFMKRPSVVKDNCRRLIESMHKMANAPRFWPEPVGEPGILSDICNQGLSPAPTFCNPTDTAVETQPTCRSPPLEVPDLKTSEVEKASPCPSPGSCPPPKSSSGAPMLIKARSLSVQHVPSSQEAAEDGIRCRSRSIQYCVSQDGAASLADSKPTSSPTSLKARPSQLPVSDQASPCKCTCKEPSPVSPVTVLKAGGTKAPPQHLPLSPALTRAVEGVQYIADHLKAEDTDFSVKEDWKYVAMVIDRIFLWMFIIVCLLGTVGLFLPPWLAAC
Sequence of Neuronal acetylcholine receptor; alpha4/beta4 (P12392 whole entry): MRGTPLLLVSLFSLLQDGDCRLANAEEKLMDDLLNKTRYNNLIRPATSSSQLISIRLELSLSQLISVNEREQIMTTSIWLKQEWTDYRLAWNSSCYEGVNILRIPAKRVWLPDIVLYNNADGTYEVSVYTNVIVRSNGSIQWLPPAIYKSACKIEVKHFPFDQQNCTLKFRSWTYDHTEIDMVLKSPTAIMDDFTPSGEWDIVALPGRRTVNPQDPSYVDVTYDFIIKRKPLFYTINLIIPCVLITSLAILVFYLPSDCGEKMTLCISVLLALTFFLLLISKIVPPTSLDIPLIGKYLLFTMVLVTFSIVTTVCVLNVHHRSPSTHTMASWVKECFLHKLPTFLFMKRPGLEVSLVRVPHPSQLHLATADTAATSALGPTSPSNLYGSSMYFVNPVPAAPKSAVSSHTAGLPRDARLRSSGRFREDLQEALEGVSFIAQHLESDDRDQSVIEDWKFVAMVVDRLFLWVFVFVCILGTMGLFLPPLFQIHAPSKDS
T2 sequence (P09483 whole entry): as the sequence (P09483 whole entry) above
T2 sequence (P12390 whole entry): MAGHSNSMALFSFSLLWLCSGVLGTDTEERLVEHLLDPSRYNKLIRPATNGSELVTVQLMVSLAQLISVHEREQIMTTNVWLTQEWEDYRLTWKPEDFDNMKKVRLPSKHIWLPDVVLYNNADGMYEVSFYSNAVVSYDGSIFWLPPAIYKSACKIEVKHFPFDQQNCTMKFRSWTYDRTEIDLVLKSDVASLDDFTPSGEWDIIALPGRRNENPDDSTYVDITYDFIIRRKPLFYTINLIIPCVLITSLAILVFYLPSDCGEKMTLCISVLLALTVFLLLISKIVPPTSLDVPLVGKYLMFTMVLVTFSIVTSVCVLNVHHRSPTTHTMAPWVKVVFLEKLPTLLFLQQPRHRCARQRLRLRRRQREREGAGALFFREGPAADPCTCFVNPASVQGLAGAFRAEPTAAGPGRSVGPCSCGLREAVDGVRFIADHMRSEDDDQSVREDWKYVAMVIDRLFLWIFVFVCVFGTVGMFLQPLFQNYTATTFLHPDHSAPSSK
Sequence of Nicotinic acetylcholine receptor alpha-4/beta-2 (Q9ERK7 whole entry): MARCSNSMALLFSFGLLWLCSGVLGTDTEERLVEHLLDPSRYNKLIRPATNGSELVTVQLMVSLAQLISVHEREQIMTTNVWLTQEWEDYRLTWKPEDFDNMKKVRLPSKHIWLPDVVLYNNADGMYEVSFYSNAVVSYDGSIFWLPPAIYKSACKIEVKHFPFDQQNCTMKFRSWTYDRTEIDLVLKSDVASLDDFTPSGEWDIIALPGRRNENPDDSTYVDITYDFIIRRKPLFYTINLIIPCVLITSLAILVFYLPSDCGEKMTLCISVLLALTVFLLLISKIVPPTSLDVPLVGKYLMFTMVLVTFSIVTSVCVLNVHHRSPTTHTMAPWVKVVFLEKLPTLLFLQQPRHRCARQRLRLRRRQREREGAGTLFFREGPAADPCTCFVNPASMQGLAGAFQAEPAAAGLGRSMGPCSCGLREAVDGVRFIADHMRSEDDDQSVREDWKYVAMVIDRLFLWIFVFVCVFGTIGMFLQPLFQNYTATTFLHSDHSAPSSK
Sequence of Nicotinic acetylcholine receptor alpha-4/beta-2 (Q8R493 whole entry): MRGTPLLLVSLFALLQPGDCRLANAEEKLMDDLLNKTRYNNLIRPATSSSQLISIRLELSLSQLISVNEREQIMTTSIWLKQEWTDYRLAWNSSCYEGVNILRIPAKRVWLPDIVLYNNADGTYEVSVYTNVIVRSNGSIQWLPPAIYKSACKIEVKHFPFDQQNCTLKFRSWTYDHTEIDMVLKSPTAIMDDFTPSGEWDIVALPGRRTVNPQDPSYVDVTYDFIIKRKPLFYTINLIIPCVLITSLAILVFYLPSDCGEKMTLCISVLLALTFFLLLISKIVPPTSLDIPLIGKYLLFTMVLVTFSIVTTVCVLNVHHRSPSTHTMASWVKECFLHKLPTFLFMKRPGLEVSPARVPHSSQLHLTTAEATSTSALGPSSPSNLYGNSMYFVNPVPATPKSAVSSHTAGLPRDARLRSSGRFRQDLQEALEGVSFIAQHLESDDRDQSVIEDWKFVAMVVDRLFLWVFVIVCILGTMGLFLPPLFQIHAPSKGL
T1 sequence (P04757 whole entry): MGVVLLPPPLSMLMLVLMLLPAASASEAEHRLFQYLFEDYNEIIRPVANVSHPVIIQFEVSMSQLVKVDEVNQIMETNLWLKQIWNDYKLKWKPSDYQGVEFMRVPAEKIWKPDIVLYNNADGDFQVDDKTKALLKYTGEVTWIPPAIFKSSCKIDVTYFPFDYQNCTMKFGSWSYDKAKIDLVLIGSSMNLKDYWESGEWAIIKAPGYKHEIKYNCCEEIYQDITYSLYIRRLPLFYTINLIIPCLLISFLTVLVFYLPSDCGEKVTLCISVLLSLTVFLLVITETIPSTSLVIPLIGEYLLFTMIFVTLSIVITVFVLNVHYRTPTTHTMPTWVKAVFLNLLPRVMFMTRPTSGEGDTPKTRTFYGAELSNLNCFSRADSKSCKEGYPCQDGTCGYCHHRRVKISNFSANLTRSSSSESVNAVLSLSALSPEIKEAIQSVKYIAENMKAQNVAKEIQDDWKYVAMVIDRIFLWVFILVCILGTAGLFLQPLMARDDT
T1 sequence (P12392 whole entry): as the sequence (P12392 whole entry) above

A word on the Ki: it is a measure of affinity in units of concentration, obtained from inhibition or displacement. High values mean weaker binding, low ones tighter binding. Usually IC50 stands for the midpoint of a concentration-inhibition curve. Higher therefore signals weaker potency. As to `CO[C@H]1CC=C2CCN3CCC4=C(CC(=O)OC4)[C@]23C1`, the Ki in experiment [1] was found to be 100 µM; in experiment [3], 0.14 µM; in experiment [4], 0.82 µM; in experiment [5], 100 µM. The compound also had an IC50 in experiment [2] of 1.2 µM.
`CO[C@H]1CC[C@H]2CCN3CCC4=C(CC(=O)OC4)[C@]23C1` showed a Ki in experiment [3] of 7.4 µM.
As to `CO[C@H]1C=CC2=CCN3CCC4=C(CC(=O)OC4)[C@]23C1`, the Ki in experiment [3] is 1.1 µM.
In the case of `CO[C@H]1CC[C@H]2CCN(C)[C@H]2C1` (racemic), the Ki in experiment [1] is over 300 µM; in experiment [4] it was 300 µM; in experiment [5] it was over 300 µM. The concentration for half-maximal inhibition (IC50) in experiment [2] and in experiment [6] was over 300 µM in each case.
Take `CO[C@H]1CC=C2CCN(C)[C@H]2C1` (racemic): the values for the Ki in experiment [1], in experiment [4] and in experiment [5] were 100 µM, 3.4 µM and 100 µM, respectively. Moreover, the half-inhibitory concentration (IC50) was 30 µM in experiment [2] and over 300 µM in experiment [6].
`CO[C@H]1C=CC2=CCN(C)[C@H]2C1` (racemic): the figures for the Ki in experiment [1], in experiment [4] and in experiment [5] were over 300 µM, 30 µM and over 300 µM, respectively. Further, the IC50 in experiment [2] was 100 µM; in experiment [6], over 300 µM.
For `CN1CC[C@@H]2CC[C@H](O)C[C@@H]21` (racemic), the Ki in experiment [1], in experiment [4] and in experiment [5] was over 300 µM throughout. In addition, the IC50 in experiment [2] and in experiment [6] was over 300 µM in each case.
In the case of `CCO[C@H]1CC[C@H]2CCN(C)[C@H]2C1` (racemic), the Ki in experiment [1] is 300 µM; in experiment [4], 300 µM; in experiment [5], over 300 µM. Besides, the IC50 in experiment [2] and in experiment [6] was over 300 µM throughout.
Regarding `CN1CC[C@@H]2CC[C@H](OCc3ccccc3)C[C@@H]21` (racemic), the inhibition constant Ki came out at 100 µM in experiment [1], 100 µM in experiment [4] and 300 µM in experiment [5]. Further, the IC50 in experiment [2] and in experiment [6] was over 300 µM in each case.
As for `COCCO[C@H]1CC[C@H]2CCN(C)[C@H]2C1` (racemic), the Ki is 300 µM in experiment [1], 300 µM in experiment [4] and over 300 µM in experiment [5]. Besides, the IC50 in experiment [2] and in experiment [6] was over 300 µM each time.
On to `O[C@H]1CC[C@H]2CCN[C@H]2C1` (racemic), for which the Ki in experiment [1], in experiment [4] and in experiment [5] was over 300 µM each time. Besides, the IC50 in experiment [2] is over 100 µM; in experiment [6] it was over 300 µM.
Regarding `CN1CCC2=CC[C@H](O)C[C@@H]21` (racemic), the inhibition constant (Ki) in experiment [1] is over 300 µM; in experiment [4] it was 300 µM; in experiment [5], over 300 µM. Further, the results for the IC50 in experiment [2] and in experiment [6] were over 100 µM and over 300 µM, respectively.
For `CCO[C@H]1CC=C2CCN(C)[C@H]2C1` (racemic), the Ki was over 300 µM in experiment [1], 300 µM in experiment [4] and over 300 µM in experiment [5]. Besides, the IC50 in experiment [2] and in experiment [6] was over 300 µM in each case.
As for `CN1CCC2=CC[C@H](OCc3ccccc3)C[C@@H]21` (racemic), the Ki in experiment [1], in experiment [4] and in experiment [5] was 300 µM each time. The IC50 in experiment [2] and in experiment [6] was over 300 µM each time.
Consider `COCCO[C@H]1CC=C2CCN(C)[C@H]2C1` (racemic), for which the inhibition constant (Ki) in experiment [1], in experiment [4] and in experiment [5] was over 300 µM throughout. Further, the IC50 in experiment [2] and in experiment [6] was over 300 µM each time.
As for `O[C@H]1CC=C2CCN[C@H]2C1` (racemic), the Ki in experiment [1], in experiment [4] and in experiment [5] was over 300 µM throughout. The IC50 in experiment [2] and in experiment [6] was over 300 µM throughout.
Turning to `CO[C@H]1CC=C2CCN[C@H]2C1` (racemic), the Ki was over 300 µM in experiment [1], 300 µM in experiment [4] and over 300 µM in experiment [5]. Moreover, the IC50 is 100 µM in experiment [2] and over 300 µM in experiment [6].
